For orientation: EC50 means the concentration at which the effect is half-maximal.

In one assay the test system is lymphocytes in the blood. Put plainly: Lymphopenia assay in mice. It counts as in vivo. The conditions noted are these: female C57BL6 mice, 10 mg/Kg subcutaneously, after 96 h of drug application (FIG. 1). As to the method:
Lymphopenia Assay in Mice
Compound 1, 5-{3-[3-chloro-4-(2,3-dihydroxypropoxy)phenyl]-1,2,4-oxadiazol-5-yl}-2-isopropoxybenzonitrile, was prepared in a solution containing 3% (w/v) 2-hydroxy propyl β-cyclodextrin (HPBCD) and 1% DMSO to a final concentration of 1 mg/ml, and subcutaneously injected to female C57BL6 mice (CHARLES RIVERS) weighing 20-25 g at the dose of 10 mg/Kg. Blood samples were obtained by puncturing the submandibular skin with a Goldenrod animal lancet at 24, 48, 72, and 96 hrs post drug application. Blood was collected into microvettes (SARSTEDT) containing EDTA tripotassium salt. Lymphocytes in blood samples were counted using a HEMAVET Multispecies Hematology System, HEMAVET HV950FS (Drew Scientific Inc.). (Hale, J. et al Bioorg. & Med. Chem. Lett. 14 (2004) 3351).The results are presented in FIG. 1: the number of lymphocytes in the blood was reduced by Compound 1 after 96 h of drug application.

Another assay deals with T1, human S1P1 receptor (Homo sapiens, UniProt P21453).
T1 construct: expressed in transfected cells; membranes used
Put plainly: GTP γ35S binding assay, S1P1 activity. The class given is biochemical. The conditions noted are these: membranes of cells stably expressing S1P1 receptor, agonist potency. As to the method: Compounds were synthesized and tested for S1P1 activity using the GTP γ^35S binding assay. These compounds may be assessed for their ability to activate or block activation of the human S1P1 receptor in cells stably expressing the S1P1 receptor.
GTP γ^35S binding was measured in the medium containing (mM) HEPES 25, pH 7.4, MgCl2 10, NaCl 100, dithitothreitol 0.5, digitonin 0.003%, 0.2 nM GTP γ^35S, and 5 μg membrane protein in a volume of 150 μl. Test compounds were included in the concentration range from 0.08 to 5,000 nM unless indicated otherwise. Membranes were incubated with 100 μM 5′-adenylylimmidodiphosphate for 30 min, and subsequently with 10 μM GDP for 10 min on ice. Drug solutions and membrane were mixed, and then reactions were initiated by adding GTP γ^35S and continued for 30 min at 25° C. Reaction mixtures were filtered over Whatman GF/B filters under vacuum, and washed three times with 3 mL of ice-cold buffer (HEPES 25, pH 7.4, MgCl2 10 and NaCl 100). Filters were dried and mixed with scintillant, and counted for ^35S activity using a β-counter. Agonist-induced GTP γ^35S binding was obtained by subtracting that in the absence of agonist. Binding data were analyzed using a non-linear regression method. In case of antagonist assay, the reaction mixture contained 10 nM […] in the presence of test antagonist at concentrations ranging from 0.08 to 5000 nM.
Background: Binding of GTPγS marks nucleotide exchange on a G protein.

T1 sequence (P21453 whole entry): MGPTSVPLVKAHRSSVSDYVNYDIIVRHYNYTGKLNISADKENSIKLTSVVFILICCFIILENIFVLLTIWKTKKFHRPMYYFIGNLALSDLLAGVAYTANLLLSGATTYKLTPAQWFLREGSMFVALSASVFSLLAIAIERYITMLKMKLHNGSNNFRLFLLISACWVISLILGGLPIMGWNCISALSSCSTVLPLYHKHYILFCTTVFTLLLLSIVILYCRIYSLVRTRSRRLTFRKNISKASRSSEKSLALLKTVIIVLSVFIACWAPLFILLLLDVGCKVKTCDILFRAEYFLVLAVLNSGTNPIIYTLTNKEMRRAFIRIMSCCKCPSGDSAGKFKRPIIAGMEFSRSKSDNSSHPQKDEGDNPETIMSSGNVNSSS

Take `CC(C)Oc1ccc(-c2nc(-c3ccc(OCC(O)CO)c(Cl)c3)no2)cc1C#N` (centres unmarked) [Compound 1, 5-{3-[3-chloro-4-(2,3-dihydroxypropoxy)phenyl]-1,2,4-oxadiazol-5-yl}-2-isopropoxybenzonitrile]: in the assay with lymphocytes in the blood, the “number of lymphocytes in the blood” value is recorded as “reduced”. The same compound showed a 50% effective concentration (EC50) at human S1P1 receptor of 10.3 nM.

In turn, `CC(C)Oc1ccc(-c2nc(-c3ccc(OCC(O)COP(=O)(O)O)c(Cl)c3)no2)cc1C#N` (centres unmarked) [Compound 4, 3-{2-chloro-4-[5-(3-cyano-4-isopropoxyphenyl)-1,2,4-oxadiazol-3-yl]phenoxy}-2-hydroxypropyl dihydrogen phosphate] showed a half-maximal effective concentration (EC50) at human S1P1 receptor of 4580 nM.

For `COP(=O)(O)OCC(O)COc1ccc(-c2noc(-c3ccc(OC(C)C)c(C#N)c3)n2)cc1Cl` (centres unmarked) [Compound 3, 3-{2-chloro-4-[5-(3-cyano-4-isopropoxyphenyl)-1,2,4-oxadiazol-3-yl]phenoxy}-2-hydroxypropyl methyl hydrogen phosphate], the EC50 on human S1P1 receptor was determined as 20.4 nM. Against the preceding compound, the EC50 is about 220-fold lower.

At human S1P1 receptor, `COP(=O)(OC)OCC(O)COc1ccc(-c2noc(-c3ccc(OC(C)C)c(C#N)c3)n2)cc1Cl` (centres unmarked) [Compound 2, 3-{2-chloro-4-[5-(3-cyano-4-isopropoxyphenyl)-1,2,4-oxadiazol-3-yl]phenoxy}-2-hydroxypropyl dimethyl phosphate] showed an EC50 of 2.88 nM.
